Columns and labels:
[1] = physical stability of amorphous material under stress conditions (temperature, relative humidity); format: physicochemical; conditions: 100° C. for 4 days
[2] = Dynamic Vapor Sorption (DVS): hygroscopicity and sorption properties; format: physicochemical; conditions: for hygroscopicity classification: 25° C., European Pharmacopeia classification where stated
Protocol: Dynamic Vapor Sorption (DVS) was performed using a Hiden Analytical Instruments IGAsorp Vapor Sorption Balance. Approximately 30 mg of sample was placed into a wire-mesh Vapor sorption balance pan, loaded into the IGAsorp Vapor sorption balance and held at 25° C.±0.1° C. The sample was subjected to a step profile from 0 to 90% RH at 10% increments, followed by desorption from 80% RH to 0% RH at 10% increments. The equilibrium criterion was set to 99.0% step completion within a minimum of […] and a maximum of 5 hours for each increment. The weight change during the sorption cycle was monitored, allowing for the hygroscopic nature of the sample to be determined. The data collection interval was in seconds.

[3] = permeability (BCS classification) in initial development experiments; format: in vitro ADME; conditions: free base
[4] = BCS classification / solubility in initial development experiments; format: physicochemical; conditions: free base; in water

Structure (SMILES): COc1cc2nccc(Oc3ccc(NC(=O)C4(C(=O)Nc5ccc(F)cc5)CC4)cc3)c2cc1OC [Compound 1 Amorphous Form, N-{4-[(6,7-dimethoxyquinolin-4-yl)oxy]phenyl}-N′-(4-fluorophenyl) cyclopropane-1,1-dicarboxamide]
- physical stability to heat stressing [1]: stable
- water uptake at 90% RH ([2]; DVS): approximately 5%
- hygroscopicity classification ([2]; DVS): hygroscopic
- total weight gain between 0% RH and 80% RH ([2]; DVS, sample dried at 0% RH first): 4 % w/w
- crystallization by XRPD of the sample post DVS ([2]; after the DVS cycle): no crystallization had occurred

Structure (SMILES): COc1cc2nccc(Oc3ccc(NC(=O)C4(C(=O)Nc5ccc(F)cc5)CC4)cc3)c2cc1OC [Compound 1 Form I, N-{4-[(6,7-dimethoxyquinolin-4-yl)oxy]phenyl}-N′-(4-fluorophenyl) cyclopropane-1,1-dicarboxamide]
- weight gain between 40% RH and 90% RH ([2]; DVS): very small weight gain
- hygroscopicity classification ([2]; DVS): non-hygroscopic
- stability at higher humidity ([2]; DVS, 40% RH to 90% RH): stable

Structure (SMILES): COc1cc2nccc(Oc3ccc(NC(=O)C4(C(=O)Nc5ccc(F)cc5)CC4)cc3)c2cc1OC [Compound 1 Form III, N-{4-[(6,7-dimethoxyquinolin-4-yl)oxy]phenyl}-N′-(4-fluorophenyl) cyclopropane-1,1-dicarboxamide]
- weight gain between 0% RH and 80% RH (in words) ([2]; DVS): very small weight gain
- hygroscopicity classification ([2]; DVS): non-hygroscopic

Structure (SMILES): COc1cc2nccc(Oc3ccc(NC(=O)C4(C(=O)Nc5ccc(F)cc5)CC4)cc3)c2cc1OC [Compound 1 Form XXVIII, N-{4-[(6,7-dimethoxyquinolin-4-yl)oxy]phenyl}-N′-(4-fluorophenyl) cyclopropane-1,1-dicarboxamide]
- weight gain between 0% RH and 80% RH (in words) ([2]; DVS): very small weight gain
- hygroscopicity classification ([2]; DVS): non-hygroscopic

Structure (SMILES): COc1cc2nccc(Oc3ccc(NC(=O)C4(C(=O)Nc5ccc(F)cc5)CC4)cc3)c2cc1OC [Compound 1 Form XXX, N-{4-[(6,7-dimethoxyquinolin-4-yl)oxy]phenyl}-N′-(4-fluorophenyl) cyclopropane-1,1-dicarboxamide]
- hygroscopicity classification ([2]; DVS): hygroscopic

Structure (SMILES): COc1cc2nccc(Oc3ccc(NC(=O)C4(C(=O)Nc5ccc(F)cc5)CC4)cc3)c2cc1OC [Compound 1 Form XXXI, N-{4-[(6,7-dimethoxyquinolin-4-yl)oxy]phenyl}-N′-(4-fluorophenyl) cyclopropane-1,1-dicarboxamide]
- weight lost on drying to 0% RH ([2]; DVS, sample dried at 0% RH before sorption and desorption): −7%

Structure (SMILES): COc1cc2nccc(Oc3ccc(NC(=O)C4(C(=O)Nc5ccc(F)cc5)CC4)cc3)c2cc1OC [Compound 1, N-{4-[(6,7-dimethoxyquinolin-4-yl)oxy]phenyl}-N′-(4-fluorophenyl) cyclopropane-1,1-dicarboxamide]
- permeability [3]: high permeability
- solubility [4]: low solubility
